Reference: ChEMBL document CHEMBL1201862, “PubChem BioAssay data set” (2004)
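Test compounds were applied to cells in 96-well plates for 48 hours at 5 doses. At the GI50, growth is halved.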 Calls of active or inactive are those of the source. Cut-off read from the data, not from the text of the source: active = GI50 up to about 1.1 µM and inactive = higher.

Legend:
Assay in all cases: NCI tumour cell line growth inhibition, 48 h
[1] = tested on: SW-620
[2] = tested on: UO-31
[3] = tested on: OVCAR-8
[4] = tested on: SF-539
[5] = tested on: SNB-75
[6] = tested on: HL-60
[7] = tested on: OVCAR-5
[8] = tested on: HOP-92
[9] = tested on: CCRF-CEM
[10] = tested on: SNB-19
[11] = tested on: M14
[12] = tested on: UACC-257
[13] = tested on: EKVX
[14] = tested on: MDA-MB-435
[15] = tested on: HT-29
[16] = tested on: UACC-62
[17] = tested on: DU-145
[18] = tested on: NCI-H522
[19] = tested on: RPMI-8226
[20] = tested on: NCI-H226
[21] = tested on: SR
[22] = tested on: T47D
[23] = tested on: HOP-62
[24] = tested on: BT-549
[25] = tested on: NCI-H460
[26] = tested on: A498
[27] = tested on: LOX IMVI
[28] = tested on: SK-OV-3
[29] = tested on: Malme-3M
[30] = tested on: SF-295
[31] = tested on: NCI-H23
[32] = tested on: SK-MEL-5
[33] = tested on: SF-268
[34] = tested on: RXF 393
[35] = tested on: COLO 205
[36] = tested on: TK-10
[37] = tested on: IGROV-1
[38] = tested on: KM12
[39] = tested on: MDA-N
[40] = tested on: MCF7
[41] = tested on: U-251
[42] = tested on: Hs-578T
[43] = tested on: NCI/ADR-RES
[44] = tested on: OVCAR-4
[45] = tested on: MDA-MB-231
[46] = tested on: 786-0
[47] = tested on: CAKI-1
[48] = tested on: ACHN
[49] = tested on: PC-3
[50] = tested on: MOLT-4
[51] = tested on: K562
[52] = tested on: SN12C
[53] = tested on: OVCAR-3
[54] = tested on: HCT-116
[55] = tested on: SK-MEL-28
[56] = tested on: A549

Measured: GI50

C/C(=C/CC[C@]1(CO)CC[C@]2(CO)[C@H](CC[C@@H]3[C@@]4(C)CC[C@H](OC5OCC(O)C(O)C5OC5OC(CO)C(O)C(O)C5O)C(C)(C)[C@@H]4CC[C@]32C)[C@H]1O)CO (stereo partly specified)
inactive: [1] > 100 µM | [2] > 100 µM | [3] > 100 µM | [4] > 100 µM | [5] > 100 µM | [6] > 100 µM | [7] > 100 µM | [8] > 100 µM | [9] > 100 µM | [10] > 100 µM | [11] > 100 µM | [12] > 100 µM | [13] > 100 µM | [14] > 100 µM | [15] > 100 µM | [16] > 100 µM | [17] > 100 µM | [18] > 100 µM | [19] > 100 µM | [20] > 100 µM | [21] > 100 µM | [22] > 100 µM | [23] > 100 µM | [24] > 100 µM | [25] > 100 µM | [26] > 100 µM | [27] > 100 µM | [28] > 100 µM | [29] 92.3 µM | [30] > 100 µM | [31] > 100 µM | [32] > 100 µM | [33] > 100 µM | [34] > 100 µM | [35] > 100 µM | [36] > 100 µM | [37] > 100 µM | [38] > 100 µM | [39] > 100 µM | [40] > 100 µM | [41] > 100 µM | [42] > 100 µM | [43] > 100 µM | [44] > 100 µM | [45] > 100 µM | [46] > 100 µM | [47] > 100 µM | [48] > 100 µM | [49] > 100 µM | [50] > 100 µM | [51] > 100 µM | [52] > 100 µM | [53] > 100 µM | [54] > 100 µM | [55] > 100 µM | [56] > 100 µM
